Source: the supplement of paper PMC4862054

The compounds below were run on HCC1937 (assay: drug sensitivity score (DSS), CellTiter-Glo (DSS (AUC-based score)); higher = stronger drug effect (viability inhibition or cytotoxicity); extreme values may be limits of the assay). Settings: incubation time: 72 h.
Procedure, shortened: (§1)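 After 72 h of incubation in 384-well plates with compound at 5 concentrations (10-fold steps, 10,000-fold range set per compound), breast cancer cell lines seeded in 20 µl suspension were read first for CellTox Green fluorescence at 485/520 nm. CellTiter-Glo luminescence was measured next, after 10 min at room temperature. Normalisation on each plate used 0.1 % DMSO and a positive kill control, and the drug sensitivity score was computed from the area under the fitted dose-response curve.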

Row | SMILES | drug sensitivity score
1 | CCN(CC)CCOc1ccc(C(=C(Cl)c2ccccc2)c2ccccc2)cc1 [Clomifene] | 5.68
2 | C[C@@H]1C[C@H]2[C@@H]3CCC4=CC(=O)C=C[C@]4(C)[C@@]3(F)[C@@H](O)C[C@]2(C)[C@@]1(O)C(=O)CO [Dexamethasone] | 0
3 | CCc1cnn2c(NCc3ccc[n+]([O-])c3)cc(N3CCCC[C@H]3CCO)nc12 [Dinaciclib] | 14.9
4 | Cc1c(C(=O)Nc2ccc(N3C[C@@H](C)O[C@@H](C)C3)nc2)cccc1-c1ccc(OC(F)(F)F)cc1 [Erismodegib] | 0
5 | CC(C)C(=O)Nc1ccc([N+](=O)[O-])c(C(F)(F)F)c1 [Flutamide] | 0
6 | COc1cc2c(Oc3ccc(NC(=O)C4(C(=O)Nc5ccc(F)cc5)CC4)cc3F)ccnc2cc1OCCCN1CCOCC1 [Foretinib] | 0
7 | COc1cc(Nc2ncc(F)c(Nc3ccc4c(n3)N(COP(=O)(O)O)C(=O)C(C)(C)O4)n2)cc(OC)c1OC [Fostamatinib] | 1.88
8 | CC(C)NC[C@@H](C(=O)N1CCN(c2ncnc3c2[C@H](C)C[C@H]3O)CC1)c1ccc(Cl)cc1 [GDC-0068] | 3.46
9 | CCCc1cc(C)[nH]c(=O)c1CNC(=O)c1cc(-c2ccnc(N3CCN(C)CC3)c2)cc2c1cnn2C(C)C [GSK343] | 0
10 | NC(=O)NO [Hydroxyurea] | 0

What follows are compounds tested on BT-549 in the same assay as above. Settings: incubation time: 72 h.
Procedure, shortened: as §1

Row | SMILES | drug sensitivity score
11 | CCCCCOC(=O)Nc1nc(=O)n([C@@H]2O[C@H](C)[C@@H](O)[C@H]2O)cc1F [Capecitabine] | 0
12 | CC(C)C[C@H](NC(=O)[C@H](CCc1ccccc1)NC(=O)CN1CCOCC1)C(=O)N[C@@H](Cc1ccccc1)C(=O)N[C@@H](CC(C)C)C(=O)[C@@]1(C)CO1 [Carfilzomib] | 29.5
13 | Nc1nc(Cl)nc2c1ncn2[C@@H]1O[C@H](CO)[C@@H](O)[C@@H]1F [Clofarabine] | 14.3
14 | CCN(CC)CCOc1ccc(C(=C(Cl)c2ccccc2)c2ccccc2)cc1 [Clomifene] | 1.96
15 | C[C@@H]1C[C@H]2[C@@H]3CCC4=CC(=O)C=C[C@]4(C)[C@@]3(F)[C@@H](O)C[C@]2(C)[C@@]1(O)C(=O)CO [Dexamethasone] | 0
16 | CCc1cnn2c(NCc3ccc[n+]([O-])c3)cc(N3CCCC[C@H]3CCO)nc12 [Dinaciclib] | 19.6
17 | Cc1c(C(=O)Nc2ccc(N3C[C@@H](C)O[C@@H](C)C3)nc2)cccc1-c1ccc(OC(F)(F)F)cc1 [Erismodegib] | 1.37
18 | CC(C)C(=O)Nc1ccc([N+](=O)[O-])c(C(F)(F)F)c1 [Flutamide] | 0
19 | COc1cc2c(Oc3ccc(NC(=O)C4(C(=O)Nc5ccc(F)cc5)CC4)cc3F)ccnc2cc1OCCCN1CCOCC1 [Foretinib] | 0
20 | COc1cc(Nc2ncc(F)c(Nc3ccc4c(n3)N(COP(=O)(O)O)C(=O)C(C)(C)O4)n2)cc(OC)c1OC [Fostamatinib] | 4.31
21 | CC(C)NC[C@@H](C(=O)N1CCN(c2ncnc3c2[C@H](C)C[C@H]3O)CC1)c1ccc(Cl)cc1 [GDC-0068] | 6.02
22 | CCCc1cc(C)[nH]c(=O)c1CNC(=O)c1cc(-c2ccnc(N3CCN(C)CC3)c2)cc2c1cnn2C(C)C [GSK343] | 1.73
23 | NC(=O)NO [Hydroxyurea] | 1.87

These compounds were tested on HCC1143 in the same assay as above. Settings: incubation time: 72 h.
Procedure, shortened: as §1

Row | SMILES | drug sensitivity score
24 | CCCCCOC(=O)Nc1nc(=O)n([C@@H]2O[C@H](C)[C@@H](O)[C@H]2O)cc1F [Capecitabine] | 0
25 | CC(C)C[C@H](NC(=O)[C@H](CCc1ccccc1)NC(=O)CN1CCOCC1)C(=O)N[C@@H](Cc1ccccc1)C(=O)N[C@@H](CC(C)C)C(=O)[C@@]1(C)CO1 [Carfilzomib] | 23.5
26 | Nc1nc(Cl)nc2c1ncn2[C@@H]1O[C@H](CO)[C@@H](O)[C@@H]1F [Clofarabine] | 10.8
27 | CCN(CC)CCOc1ccc(C(=C(Cl)c2ccccc2)c2ccccc2)cc1 [Clomifene] | 0
28 | C[C@@H]1C[C@H]2[C@@H]3CCC4=CC(=O)C=C[C@]4(C)[C@@]3(F)[C@@H](O)C[C@]2(C)[C@@]1(O)C(=O)CO [Dexamethasone] | 0
29 | CCc1cnn2c(NCc3ccc[n+]([O-])c3)cc(N3CCCC[C@H]3CCO)nc12 [Dinaciclib] | 19.1
30 | Cc1c(C(=O)Nc2ccc(N3C[C@@H](C)O[C@@H](C)C3)nc2)cccc1-c1ccc(OC(F)(F)F)cc1 [Erismodegib] | 0
31 | CC(C)C(=O)Nc1ccc([N+](=O)[O-])c(C(F)(F)F)c1 [Flutamide] | 0
32 | COc1cc2c(Oc3ccc(NC(=O)C4(C(=O)Nc5ccc(F)cc5)CC4)cc3F)ccnc2cc1OCCCN1CCOCC1 [Foretinib] | 1.22
33 | COc1cc(Nc2ncc(F)c(Nc3ccc4c(n3)N(COP(=O)(O)O)C(=O)C(C)(C)O4)n2)cc(OC)c1OC [Fostamatinib] | 1.25
34 | CC(C)NC[C@@H](C(=O)N1CCN(c2ncnc3c2[C@H](C)C[C@H]3O)CC1)c1ccc(Cl)cc1 [GDC-0068] | 2.35
35 | CCCc1cc(C)[nH]c(=O)c1CNC(=O)c1cc(-c2ccnc(N3CCN(C)CC3)c2)cc2c1cnn2C(C)C [GSK343] | 0
36 | NC(=O)NO [Hydroxyurea] | 0

The compounds below were run on CAL-148 in the same assay as above. Settings: incubation time: 72 h.
Procedure, shortened: as §1

Row | SMILES | drug sensitivity score
37 | CCCCCOC(=O)Nc1nc(=O)n([C@@H]2O[C@H](C)[C@@H](O)[C@H]2O)cc1F [Capecitabine] | 0
38 | CC(C)C[C@H](NC(=O)[C@H](CCc1ccccc1)NC(=O)CN1CCOCC1)C(=O)N[C@@H](Cc1ccccc1)C(=O)N[C@@H](CC(C)C)C(=O)[C@@]1(C)CO1 [Carfilzomib] | 17.4
39 | Nc1nc(Cl)nc2c1ncn2[C@@H]1O[C@H](CO)[C@@H](O)[C@@H]1F [Clofarabine] | 8.43
40 | CCN(CC)CCOc1ccc(C(=C(Cl)c2ccccc2)c2ccccc2)cc1 [Clomifene] | 0
41 | C[C@@H]1C[C@H]2[C@@H]3CCC4=CC(=O)C=C[C@]4(C)[C@@]3(F)[C@@H](O)C[C@]2(C)[C@@]1(O)C(=O)CO [Dexamethasone] | 0
42 | CCc1cnn2c(NCc3ccc[n+]([O-])c3)cc(N3CCCC[C@H]3CCO)nc12 [Dinaciclib] | 7.54
43 | Cc1c(C(=O)Nc2ccc(N3C[C@@H](C)O[C@@H](C)C3)nc2)cccc1-c1ccc(OC(F)(F)F)cc1 [Erismodegib] | 0
44 | CC(C)C(=O)Nc1ccc([N+](=O)[O-])c(C(F)(F)F)c1 [Flutamide] | 0
45 | COc1cc2c(Oc3ccc(NC(=O)C4(C(=O)Nc5ccc(F)cc5)CC4)cc3F)ccnc2cc1OCCCN1CCOCC1 [Foretinib] | 1.11
46 | COc1cc(Nc2ncc(F)c(Nc3ccc4c(n3)N(COP(=O)(O)O)C(=O)C(C)(C)O4)n2)cc(OC)c1OC [Fostamatinib] | 0
47 | CC(C)NC[C@@H](C(=O)N1CCN(c2ncnc3c2[C@H](C)C[C@H]3O)CC1)c1ccc(Cl)cc1 [GDC-0068] | 19.6
48 | CCCc1cc(C)[nH]c(=O)c1CNC(=O)c1cc(-c2ccnc(N3CCN(C)CC3)c2)cc2c1cnn2C(C)C [GSK343] | 0.724
49 | NC(=O)NO [Hydroxyurea] | 0
